Laboratory results published in US6670373B1, “Compounds and method for inhibiting MRP1” (Eli Lilly and Company, priority 1999, dated 2003).

Experiments:
MDR1 = molecular target: T1, MDR1 (Homo sapiens, UniProt P08183); experiment: Reversal of MDR1-mediated vincristine resistance in HL60/Vinc cells (alamarBlue cell growth); assay type: cell-based; details: oncolytic alone at the tested concentration
T1 construct: HL60/Adr and HL60/Vinc are continuous cell lines, which were selected for doxorubicin and vincristine resistance respectively; endogenous in cells; host or cells: HL60/Vinc (vincristine-selected variant of human HL60)
T1 sequence (P08183 whole entry): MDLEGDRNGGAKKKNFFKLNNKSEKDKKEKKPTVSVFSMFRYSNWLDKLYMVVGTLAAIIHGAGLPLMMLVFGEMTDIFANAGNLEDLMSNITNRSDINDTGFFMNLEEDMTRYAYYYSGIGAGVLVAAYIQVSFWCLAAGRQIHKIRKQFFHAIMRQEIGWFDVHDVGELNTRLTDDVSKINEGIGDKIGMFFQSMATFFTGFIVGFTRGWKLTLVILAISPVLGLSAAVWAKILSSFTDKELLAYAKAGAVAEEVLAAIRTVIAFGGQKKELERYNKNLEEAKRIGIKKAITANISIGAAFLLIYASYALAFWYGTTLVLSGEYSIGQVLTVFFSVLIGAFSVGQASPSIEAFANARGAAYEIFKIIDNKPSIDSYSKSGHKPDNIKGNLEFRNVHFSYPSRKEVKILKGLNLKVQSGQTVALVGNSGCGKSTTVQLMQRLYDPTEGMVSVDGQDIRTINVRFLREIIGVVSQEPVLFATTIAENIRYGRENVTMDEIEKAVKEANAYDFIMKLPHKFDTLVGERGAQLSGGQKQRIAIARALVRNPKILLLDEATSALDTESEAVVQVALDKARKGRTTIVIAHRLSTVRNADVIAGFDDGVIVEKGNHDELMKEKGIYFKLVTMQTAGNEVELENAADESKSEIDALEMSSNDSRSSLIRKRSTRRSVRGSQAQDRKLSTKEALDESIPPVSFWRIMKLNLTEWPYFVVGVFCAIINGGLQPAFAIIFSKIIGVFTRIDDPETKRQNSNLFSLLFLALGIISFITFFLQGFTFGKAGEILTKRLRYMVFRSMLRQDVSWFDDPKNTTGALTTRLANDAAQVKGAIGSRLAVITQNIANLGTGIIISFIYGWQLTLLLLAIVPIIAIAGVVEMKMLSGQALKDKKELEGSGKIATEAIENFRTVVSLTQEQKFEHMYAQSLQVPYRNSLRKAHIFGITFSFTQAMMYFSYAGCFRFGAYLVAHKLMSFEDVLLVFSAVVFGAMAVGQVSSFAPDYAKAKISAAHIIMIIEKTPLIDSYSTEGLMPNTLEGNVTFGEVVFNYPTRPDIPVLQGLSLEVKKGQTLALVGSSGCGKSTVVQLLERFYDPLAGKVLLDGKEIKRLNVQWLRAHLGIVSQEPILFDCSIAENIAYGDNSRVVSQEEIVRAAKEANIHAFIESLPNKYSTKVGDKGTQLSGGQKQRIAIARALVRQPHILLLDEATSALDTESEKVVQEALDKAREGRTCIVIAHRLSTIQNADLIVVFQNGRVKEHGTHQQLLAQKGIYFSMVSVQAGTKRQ
Method: (§1) The biological activity of the compounds of the present invention was evaluated employing an initial screening assay which rapidly and accurately measured the activity of the tested compound in inhibiting MRP1 or MDR1. Assays useful for evaluating this reversing capability are well known in the art. See, e.g., T. McGrath, et al., Biochemical Pharmacology, 38:3611, 1989; D. Marquardt and M. S. Center, Cancer Research, 52:3157, 1992; D. Marquardt, et al., Cancer Research, 50:1426, 1990; and Cole, et. al., Cancer Research, 54: 5902-5910, 1994.
(§2) Assay for Reversal of MRP1-Mediated Doxorubicin Resistance and MDR1-Mediated Vincristine Resistance: HL60/Adr and HL60/Vinc are continuous cell lines, which were selected for doxorubicin and vincristine resistance respectively by culturing HL60, a human acute myeloblastic leukemia cell line, in increasing concentrations of doxorubicin or vincristine until a highly resistant variant was attained.
(§3) HL60/Adr and HL60/Vinc cells were grown in RPMI 1640 (Gibco) containing 10% fetal bovine serum (FBS) and 50 μg/ml GENTAMICIN™ (Sigma). Cells were harvested; washed twice with assay medium (same as culture media); counted; and diluted to 1×10^5 cells/ml in assay medium. One hundred microliters of cells were aliquoted into wells of a 96 well tissue culture plate. […]

MRP1 = molecular target: T2, MRP1 (Homo sapiens, UniProt P33527); experiment: Reversal of MRP1-mediated doxorubicin resistance in HL60/Adr cells (alamarBlue cell growth); assay type: cell-based; details: oncolytic alone at the tested concentration
T2 construct: HL60/Adr and HL60/Vinc are continuous cell lines, which were selected for doxorubicin and vincristine resistance respectively; endogenous in cells; host or cells: HL60/Adr (doxorubicin-selected variant of human HL60)
T2 sequence (P33527 whole entry): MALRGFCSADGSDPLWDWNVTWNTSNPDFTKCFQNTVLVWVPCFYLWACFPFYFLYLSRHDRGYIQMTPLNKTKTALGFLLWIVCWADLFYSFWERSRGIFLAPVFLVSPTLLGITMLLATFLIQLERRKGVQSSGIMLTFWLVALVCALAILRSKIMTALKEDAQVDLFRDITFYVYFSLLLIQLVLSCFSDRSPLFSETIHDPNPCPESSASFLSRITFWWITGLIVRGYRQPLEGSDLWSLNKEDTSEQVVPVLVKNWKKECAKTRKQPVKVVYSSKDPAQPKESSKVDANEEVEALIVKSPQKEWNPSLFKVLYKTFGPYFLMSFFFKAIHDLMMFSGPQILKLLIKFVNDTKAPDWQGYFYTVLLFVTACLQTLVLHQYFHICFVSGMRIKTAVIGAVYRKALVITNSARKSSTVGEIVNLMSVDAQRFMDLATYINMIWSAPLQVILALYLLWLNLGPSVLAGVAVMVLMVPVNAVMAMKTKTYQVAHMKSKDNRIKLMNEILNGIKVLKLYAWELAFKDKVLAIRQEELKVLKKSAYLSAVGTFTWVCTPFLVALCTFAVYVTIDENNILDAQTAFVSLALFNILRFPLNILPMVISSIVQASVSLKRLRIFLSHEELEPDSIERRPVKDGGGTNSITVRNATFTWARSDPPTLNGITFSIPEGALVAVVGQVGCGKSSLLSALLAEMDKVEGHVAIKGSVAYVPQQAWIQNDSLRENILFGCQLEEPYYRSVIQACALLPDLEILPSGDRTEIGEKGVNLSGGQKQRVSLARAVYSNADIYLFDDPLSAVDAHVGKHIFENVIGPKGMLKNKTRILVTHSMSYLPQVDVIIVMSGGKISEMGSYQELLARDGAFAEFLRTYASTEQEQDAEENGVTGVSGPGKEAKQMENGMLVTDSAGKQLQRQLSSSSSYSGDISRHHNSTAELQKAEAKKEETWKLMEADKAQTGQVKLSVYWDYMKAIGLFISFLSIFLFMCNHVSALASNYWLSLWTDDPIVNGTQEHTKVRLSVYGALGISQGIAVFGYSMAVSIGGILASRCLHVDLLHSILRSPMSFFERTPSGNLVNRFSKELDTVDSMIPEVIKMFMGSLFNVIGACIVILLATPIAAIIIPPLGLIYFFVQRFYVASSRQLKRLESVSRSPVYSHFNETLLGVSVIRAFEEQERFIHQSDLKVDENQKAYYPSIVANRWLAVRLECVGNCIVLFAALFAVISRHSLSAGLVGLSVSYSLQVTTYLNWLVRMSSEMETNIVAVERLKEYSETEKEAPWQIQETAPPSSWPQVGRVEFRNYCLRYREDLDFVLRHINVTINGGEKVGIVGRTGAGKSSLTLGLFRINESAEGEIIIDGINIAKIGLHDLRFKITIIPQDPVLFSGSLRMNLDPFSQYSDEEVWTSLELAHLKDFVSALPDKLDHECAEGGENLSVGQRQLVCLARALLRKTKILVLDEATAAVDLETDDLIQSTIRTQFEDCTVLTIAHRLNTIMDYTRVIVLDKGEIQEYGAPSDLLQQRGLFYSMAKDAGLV
Method: as §1, §2, §3

inhibition of cell growth by the oncolytic alone (MRP1): minimally inhibits
Structure (SMILES): COc1cccc2c1C(=O)c1c(O)c3c(c(O)c1C2=O)C[C@@](O)(C(=O)CO)C[C@@H]3O[C@H]1C[C@H](N)[C@H](O)[C@H](C)O1 [doxorubicin]
inhibition of cell growth by the oncolytic alone (MDR1): minimally inhibits
